≈ marks a conversion by molar mass, not a printed value.
Key:
Staphylococcus aureus [1] = assay: Antibacterial activity against MsrA pump expressing Staphylococcus aureus after 24 hrs by geometric microdilution method; assay type: functional
Staphylococcus aureus [2] = assay: Antibacterial activity against aminoglycoside-6'-N-acetyltransferase/2''-O-phosphoryltransferase expressing Staphylococcus aureus after 24 hrs by geometric microdilution method; assay type: functional
Staphylococcus aureus [3] = assay: Antibacterial activity against aminoglycoside-3'-O-phosphoryltransferase expressing Staphylococcus aureus after 24 hrs by geometric microdilution method; assay type: functional
Staphylococcus aureus [4] = assay: Antibacterial activity against aminoglycoside-4'-O-phosphoryltransferase expressing Staphylococcus aureus after 24 hrs by geometric microdilution method; assay type: functional
Staphylococcus aureus [5] = assay: Antibacterial activity against Staphylococcus aureus ATCC 25923 after 24 hrs by geometric microdilution method; assay type: functional; conditions: ATCC 25923, 24 h
Staphylococcus aureus [6] = assay: Antibacterial activity against NorA pump expressing Staphylococcus aureus after 24 hrs by geometric microdilution method; assay type: functional
Staphylococcus aureus [7] = assay: Antibacterial activity against methicillin-resistant Staphylococcus aureus ATCC 33592 clinical isolate after 24 hrs by geometric microdilution method; assay type: functional; conditions: ATCC 33592, 24 h
Acinetobacter lwoffii [8] = assay: Antibacterial activity against […] expressing Acinetobacter lwoffii AI.88-483 after 24 hrs by geometric microdilution method; assay type: functional; conditions: AI.88-483, 24 h
Pseudomonas aeruginosa [9] = assay: Antibacterial activity against Pseudomonas aeruginosa ATCC 27853 after 24 hrs by geometric microdilution method; assay type: functional; conditions: ATCC 27853, 24 h
Pseudomonas aeruginosa [10] = assay: Antibacterial activity against AAC6'-2a expressing Pseudomonas aeruginosa F03 after 24 hrs by geometric microdilution method; assay type: functional; conditions: F03, 24 h
Pseudomonas aeruginosa [11] = assay: Antibacterial activity against MexXY expressing Pseudomonas aeruginosa PT629 after 24 hrs by geometric microdilution method; assay type: functional; conditions: PT629, 24 h
Klebsiella pneumoniae = assay: Antibacterial activity against Klebsiella pneumoniae ATCC 700603 after 24 hrs by geometric microdilution method; assay type: functional; conditions: ATCC 700603, 24 h
Escherichia coli [12] = assay: Antibacterial activity against AAC6'-2b expressing Escherichia coli PAZ505H8101 after 24 hrs by geometric microdilution method; assay type: functional; conditions: PAZ505H8101, 24 h
Escherichia coli [13] = assay: Antibacterial activity against ANT2'-2a expressing Escherichia coli L58058.1 after 24 hrs by geometric microdilution method; assay type: functional; conditions: L58058.1, 24 h
Pseudomonas aeruginosa [14] = assay: Antibacterial activity against Pseudomonas aeruginosa PAO1 after 24 hrs by geometric microdilution method; assay type: functional; conditions: PAO1, 24 h
Pseudomonas aeruginosa [15] = assay: Antibacterial activity against MexCD expressing Pseudomonas aeruginosa PA01 after 24 hrs by geometric microdilution method; assay type: functional; conditions: PA01, 24 h
Pseudomonas aeruginosa [16] = assay: Antibacterial activity against MexEF expressing Pseudomonas aeruginosa PA03 after 24 hrs by geometric microdilution method; assay type: functional; conditions: PA03, 24 h
Pseudomonas aeruginosa [17] = assay: Antibacterial activity against MexAB expressing Pseudomonas aeruginosa PA21 after 24 hrs by geometric microdilution method; assay type: functional; conditions: PA21, 24 h
Pseudomonas aeruginosa [18] = assay: Antibacterial activity against MexXY expressing Pseudomonas aeruginosa PA22 after 24 hrs by geometric microdilution method; assay type: functional; conditions: PA22, 24 h
Pseudomonas aeruginosa [19] = assay: Antibacterial activity against TriABC expressing MexAB, MexCD, MexEF, MexXY deleted Pseudomonas aeruginosa PA405 after 24 hrs by geometric microdilution method; assay type: functional; conditions: PA405, 24 h
Pseudomonas aeruginosa [20] = assay: Antibacterial activity against MexAB, MexCD, MexEF, MexXY, TriABC deleted Pseudomonas aeruginosa PA406 after 24 hrs by geometric microdilution method; assay type: functional; conditions: PA406, 24 h
Staphylococcus aureus [21] = assay: Antibacterial activity against vancomycin-resistant Staphylococcus aureus VRS-2 after 24 hrs by geometric microdilution method; assay type: functional; conditions: VRS-2, 24 h
Acinetobacter lwoffii [22] = assay: microbe, parasite or virus in culture; conditions: ATCC 17925, 24 h
Description: Antibacterial activity against Acinetobacter lwoffii ATCC 17925 after 24 hrs by geometric microdilution method

Escherichia coli [23] = assay: microbe, parasite or virus in culture; conditions: ATCC 25922, 24 h
Description: Antibacterial activity against Escherichia coli ATCC 25922 after 24 hrs by geometric microdilution method

MIC (Staphylococcus aureus [1]) [µg/mL] | MIC (Staphylococcus aureus [2]) [µg/mL] | MIC (Staphylococcus aureus [3]) [µg/mL] | MIC (Staphylococcus aureus [4]) [µg/mL] | MIC (Staphylococcus aureus [5]) [µg/mL] | MIC (Staphylococcus aureus [6]) [µg/mL] | Structure (SMILES) | MIC (Staphylococcus aureus [7]) [µg/mL] | MIC (Acinetobacter lwoffii [8]) [µg/mL] | MIC (Pseudomonas aeruginosa [9]) [µg/mL] | MIC (Pseudomonas aeruginosa [10]) [µg/mL] | MIC (Pseudomonas aeruginosa [11]) [µg/mL] | MIC (Klebsiella pneumoniae) [µg/mL] | MIC (Escherichia coli [12]) [µg/mL] | MIC (Escherichia coli [13]) [µg/mL] | MIC (Pseudomonas aeruginosa [14]) [µg/mL] | MIC (Pseudomonas aeruginosa [15]) [µg/mL] | MIC (Pseudomonas aeruginosa [16]) [µg/mL] | MIC (Pseudomonas aeruginosa [17]) [µg/mL] | MIC (Pseudomonas aeruginosa [18]) [µg/mL] | MIC (Pseudomonas aeruginosa [19]) [µg/mL] | also measured
> 128 | > 128 | > 128 | > 128 | > 128 | > 128 | NC[C@H]1O[C@H](O[C@H]2[C@H](OCc3ccc4ccccc4c3)[C@@H](O)[C@H](N)C[C@@H]2N)[C@H](N)[C@@H](O)[C@@H]1O |  |  |  |  |  |  |  |  |  |  |  |  |  |  | 
> 128 | > 128 | > 128 | > 128 | > 128 | > 128 | NC[C@H]1O[C@H](O[C@H]2[C@H](O)[C@@H](OCc3ccc4ccccc4n3)[C@H](N)C[C@@H]2N)[C@H](N)[C@@H](OCc2ccc3ccccc3n2)[C@@H]1O |  |  |  |  |  |  |  |  |  |  |  |  |  |  | 
> 128 | > 128 | 128 (≈ 277 µM) | > 128 | > 128 | > 128 | NC[C@H]1O[C@H](O[C@H]2[C@H](O)[C@@H](O)[C@H](N)C[C@@H]2N)[C@H](N)[C@@H](OCc2ccc3ccccc3c2)[C@@H]1O |  |  |  |  |  |  |  |  |  |  |  |  |  |  | 
 |  |  |  |  |  | NC[C@H]1O[C@H](O[C@H]2[C@H](OCc3ccc4ccccc4c3)[C@@H](OCc3ccc4ccccc4c3)[C@H](N)C[C@@H]2N)[C@H](N)[C@@H](OCc2ccc3ccccc3c2)[C@@H]1OCc1ccc2ccccc2c1 |  | > 128 | 64 (≈ 72.5 µM) | 64 (≈ 72.5 µM) | 64 (≈ 72.5 µM) | 128 (≈ 145 µM) | 64 (≈ 72.5 µM) | 64 (≈ 72.5 µM) | 64 (≈ 72.5 µM) | 64 (≈ 72.5 µM) | 64 (≈ 72.5 µM) | 64 (≈ 72.5 µM) | 64 (≈ 72.5 µM) | 64 (≈ 72.5 µM) | MIC (Pseudomonas aeruginosa [20]): 64 µg/mL (≈ 72.5 µM)
> 128 | > 128 | > 128 | > 128 | > 128 | > 128 | NC[C@H]1O[C@H](O[C@H]2[C@H](O)[C@@H](O)[C@H](N)C[C@@H]2N)[C@H](N)[C@@H](O)[C@@H]1OCc1ccc2ccccc2c1 |  |  |  |  |  |  |  |  |  |  |  |  |  |  | 

Structure (SMILES) | MIC (Staphylococcus aureus [1]) [µg/mL] | MIC (Staphylococcus aureus [2]) [µg/mL] | MIC (Staphylococcus aureus [3]) [µg/mL] | MIC (Staphylococcus aureus [4]) [µg/mL] | MIC (Staphylococcus aureus [5]) [µg/mL] | MIC (Staphylococcus aureus [6]) [µg/mL] | MIC (Staphylococcus aureus [7]) [µg/mL] | MIC (Acinetobacter lwoffii [8]) [µg/mL] | MIC (Pseudomonas aeruginosa [9]) [µg/mL] | MIC (Pseudomonas aeruginosa [10]) [µg/mL] | MIC (Pseudomonas aeruginosa [11]) [µg/mL] | MIC (Klebsiella pneumoniae) [µg/mL] | MIC (Escherichia coli [12]) [µg/mL] | MIC (Escherichia coli [13]) [µg/mL] | MIC (Pseudomonas aeruginosa [14]) [µg/mL] | MIC (Pseudomonas aeruginosa [15]) [µg/mL] | MIC (Pseudomonas aeruginosa [16]) [µg/mL] | MIC (Pseudomonas aeruginosa [17]) [µg/mL] | MIC (Pseudomonas aeruginosa [18]) [µg/mL] | MIC (Pseudomonas aeruginosa [19]) [µg/mL] | also measured
NC[C@H]1O[C@H](O[C@H]2[C@H](O)[C@@H](OCc3ccc4ccccc4c3)[C@H](N)C[C@@H]2N)[C@H](N)[C@@H](O)[C@@H]1O | > 128 | > 128 | > 128 | > 128 | > 128 | > 128 | > 128 |  |  |  |  |  |  |  |  |  |  |  |  |  | 
NC[C@H]1O[C@H](O[C@H]2[C@H](O)[C@@H](O)[C@H](N)C[C@@H]2N)[C@H](N)[C@@H](O)[C@@H]1O [NEAMINE] | 16 (≈ 49.6 µM) | 16 (≈ 49.6 µM) | > 128 | > 128 | 32 (≈ 99.3 µM) | 32 (≈ 99.3 µM) | > 128 | > 128 | > 128 | > 128 | > 128 | 32 (≈ 99.3 µM) | > 128 | 32 (≈ 99.3 µM) | > 128 | > 128 | > 128 | > 128 | > 128 | 128 (≈ 397 µM) | MIC (Staphylococcus aureus [21]): > 128 µg/mL; MIC (Pseudomonas aeruginosa [20]): 128 µg/mL (≈ 397 µM); MIC (Acinetobacter lwoffii [22]): 2 µg/mL (≈ 6.2 µM); MIC (Escherichia coli [23]): 32 µg/mL (≈ 99.3 µM)
NC[C@H]1O[C@H](O[C@H]2[C@H](O)[C@@H](OCc3ccccc3)[C@H](N)C[C@@H]2N)[C@H](N)[C@@H](OCc2ccccc2)[C@@H]1OCc1ccccc1 | > 128 | > 128 | > 128 | > 128 | > 128 | > 128 | > 128 | > 128 | > 128 | > 128 | > 128 | > 128 | > 128 | > 128 | > 128 | > 128 | > 128 | > 128 | > 128 | 64 (≈ 108 µM) | MIC (Staphylococcus aureus [21]): 64 µg/mL (≈ 108 µM); MIC (Pseudomonas aeruginosa [20]): 64 µg/mL (≈ 108 µM); MIC (Acinetobacter lwoffii [22]): 128 µg/mL (≈ 216 µM); MIC (Escherichia coli [23]): > 128 µg/mL

Reference: ChEMBL document CHEMBL1156794, “Synthesis and antimicrobial evaluation of amphiphilic neamine derivatives” (J Med Chem, 2010)
